We go through 4 compounds from patent US20240368575A1, “AN ENGINEERED YEAST CELL FOR THE DELIVERY OF ANTIBIOTIC-INACTIVATING ENZYMES” (priority 2021, published 2024).

Series [1] addresses VIM-2 metallo-beta-lactamase variant (BL2), SEQ ID NO:115 (parent VIM-2, SEQ ID NO:8) (Pseudomonas aeruginosa, UniProt Q9K2N0, E156D/Q48H/Q60R/V27S/V36A). As to the kind of experiment: Steady-state kinetic parameters of purified BL2 beta-lactamase, imipenem hydrolysis. The class given is biochemical. The conditions noted are these: purified BL2 protein; assay with imipenem, 30° C., 50 mM HEPES pH 7.5, 50 μM ZnSO4. As for the experimental part: β-lactamase genes bl2 and bl3, encoding respectively the metallo β-lactamases VIM-2 variant of amino acid sequence SEQ ID NO:115 and BcII from Bacillus cereus of amino acid sequence SEQ ID NO:117, were heterologously expressed in S. boulardii.
Each sample was measured in triplicates.

Series [2] has as its target P3A variant of the beta-lactamase from Bacillus licheniformis 749/C (BL), SEQ ID NO: 12 (Bacillus licheniformis, UniProt P00808, D288N). Description: Steady-state kinetic parameters of purified BL (P3A) beta-lactamase, ampicillin hydrolysis. The conditions noted are these: purified BL protein; assay with ampicillin, 30° C., 50 mM HEPES pH 7.5. The class given is biochemical.

In series [3] the test system is C[C@@H](O)[C@H]1C(=O)N2C(C(=O)O)=C(SCCN=CN)C[C@H]12. As to the kind of experiment: purified protein, by the assay type. The note with it: other: purified BL3 protein, assay with imipenem, 30° C., 50 mM HEPES pH 7.5, 50 μM ZnSO4.
Series [4] concerns CC1(C)S[C@@H]2[C@H](NC(=O)[C@H](N)c3ccccc3)C(=O)N2[C@H]1C(=O)O. Description: Steady-state kinetic parameters of purified BL (P3A) beta-lactamase, ampicillin hydrolysis. In kind it is biochemical, Bacillus licheniformis 749/C. The note with it: other: purified BL protein, assay with ampicillin, 30° C., 50 mM HEPES pH 7.5.

Sequence of P3A variant of the beta-lactamase from Bacillus licheniformis 749/C (BL), SEQ ID NO: 12 (P00808 46-307 D288N): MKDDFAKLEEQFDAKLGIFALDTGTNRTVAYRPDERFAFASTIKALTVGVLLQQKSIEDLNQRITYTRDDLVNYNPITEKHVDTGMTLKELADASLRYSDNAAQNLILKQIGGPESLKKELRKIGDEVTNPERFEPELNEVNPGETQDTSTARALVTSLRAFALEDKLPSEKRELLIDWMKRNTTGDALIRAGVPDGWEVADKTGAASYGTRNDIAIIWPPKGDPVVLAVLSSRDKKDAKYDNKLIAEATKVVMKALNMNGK

What is called Km is the substrate concentration at which the rate is half of its maximum. As usually defined, the kcat is the maximal rate divided by the concentration of active sites. For the compound `C[C@@H](O)[C@H]1C(=O)N2C(C(=O)O)=C(SCCN=CN)C[C@H]12` [imipenem], in series [1], the Km is 12 µM and the kcat is 200 s⁻¹.

As to `CC1(C)S[C@@H]2[C@H](NC(=O)[C@H](N)c3ccccc3)C(=O)N2[C@H]1C(=O)O` [ampicillin], in series [2], the kcat is listed as 1,345 s^−1.

Regarding “BcII metallo-beta-lactamase from Bacillus cereus (BL3), SEQ ID NO:117 (Bacillus cereus)”, in series [3], the Km was determined as 220 µM and the kcat is 115 s⁻¹.

Consider “P3A variant of the beta-lactamase from Bacillus licheniformis 749/C (BL), SEQ ID NO: 12 (Bacillus licheniformis; D288N)”, for which the Km in series [4] was found to be 180 µM.
